{"source": "patent US9695323B2", "about": "“UV curable solventless antimicrobial compositions” (Becton, Dickinson and Company, priority 2013, dated 2017)", "origin": "cited, not measured here", "tested_on": "Staphylococcus epidermidis"}
{"smiles": "CC(=O)O.CC(=O)O.NC(=N\\CCCCCC/N=C(N)/N=C(\\N)Nc1ccc(Cl)cc1)/N=C(\\N)Nc1ccc(Cl)cc1", "note": "[chlorhexidine diacetate]", "values": [{"measurement": "minimum inhibitory concentration", "result": 2, "unit": "µg/mL"}]}
